Laboratory results as given in US12492195B2, “Preparation method for and crystal form of 3-aryloxy-3-five-membered heteroaryl-propylamine compound” (Zhangzhou Pien Tze Huang Pharmaceutical Co., Ltd., priority 2020, dated 2025).

Experiments:
TRPV4 = target: T1, TRPV4 (Homo sapiens, UniProt Q9HBA0); experiment: Manual patch clamp detection on TRPV4 channel; format: cell-based; settings: 10.00 μM, HEK293, GSK1016790A-induced current
T1 construct: expressed in transfected cells
Description: TRPV4 cells were cultured in a cell culture dish with a diameter of 35 mm, placed in an incubator in 5% CO2 at 37° C., and passaged at a ratio of 1:5 every 48 hours. The formula of medium was 90% DMEM (Invitrogen), 10% fetal bovine serum (Gibco), 2 mM L-glutamine, 50 μg/mL Hygromycin B (Invitrogen) and 5 μg/mL Blasticidine HCl (Invitrogen). Before electrophysiological patch clamp experiment, the cell culture medium was replaced with medium containing 1 μg/mL doxycycline for at least 16 hours to induce the expression of TRPV4.
(§1) On the day of the experiment, the cell culture medium was aspirated, the cell were rinsed once with extracellular fluid, and then 0.25% Trypsin-EDTA (Invitrogen) solution was added, and digested at room temperature for 1-2 minutes. The digestion solution was aspirated, the cell were resuspended with extracellular fluid, and transferred to the experimental dish for electrophysiological recording for further experiment. […]
(§2) HEK293 cells stably expressing TRP channels, the corresponding agonist-induced channel current was recorded by whole-cell patch clamp technique at room temperature. […] Clamp voltages and data recording were controlled and recorded by a computer using pClamp 11 software with the sampling frequency of 10 kHz and the filtering frequency of 2 kHz. […] After the current was evoked for more than 40 s and no attenuation was determined, the dosing process started. […]

TRPV1 = target: T2, TRPV1 (Homo sapiens, UniProt Q8NER1); experiment: Manual patch clamp detection on TRPV1 channel; format: cell-based; settings: HEK293, Capsaicin-induced current
T2 construct: expressed in transfected cells
T2 sequence (Q8NER1 whole entry, species assumed): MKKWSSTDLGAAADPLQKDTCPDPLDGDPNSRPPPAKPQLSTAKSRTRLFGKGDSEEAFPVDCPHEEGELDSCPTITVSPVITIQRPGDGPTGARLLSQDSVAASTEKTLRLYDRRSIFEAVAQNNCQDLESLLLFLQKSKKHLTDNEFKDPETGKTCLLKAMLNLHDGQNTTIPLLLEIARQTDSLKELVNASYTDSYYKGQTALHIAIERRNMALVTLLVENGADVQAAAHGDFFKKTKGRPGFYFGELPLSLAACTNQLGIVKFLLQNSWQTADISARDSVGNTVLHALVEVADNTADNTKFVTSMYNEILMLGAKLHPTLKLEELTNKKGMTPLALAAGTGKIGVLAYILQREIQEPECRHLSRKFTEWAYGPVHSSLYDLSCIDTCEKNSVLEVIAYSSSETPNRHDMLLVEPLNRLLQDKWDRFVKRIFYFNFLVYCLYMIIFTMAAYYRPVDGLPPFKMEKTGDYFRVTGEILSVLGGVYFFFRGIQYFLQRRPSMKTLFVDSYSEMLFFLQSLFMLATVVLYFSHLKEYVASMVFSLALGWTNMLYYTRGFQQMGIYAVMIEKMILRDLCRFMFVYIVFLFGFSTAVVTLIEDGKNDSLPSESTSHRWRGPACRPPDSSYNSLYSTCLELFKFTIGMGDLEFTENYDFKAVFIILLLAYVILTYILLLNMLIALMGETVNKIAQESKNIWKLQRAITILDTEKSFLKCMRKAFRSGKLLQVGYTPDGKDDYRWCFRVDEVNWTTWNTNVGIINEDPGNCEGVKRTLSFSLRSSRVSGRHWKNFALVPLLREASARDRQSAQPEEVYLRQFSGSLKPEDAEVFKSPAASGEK
Description: TRPV1 cells were cultured in a cell culture dish with a diameter of 35 mm, placed in a 37° C., 5% CO2 incubator, and passaged at a ratio of 1:5 every 48 hours. Medium formula: 90% DMEM (Invitrogen), 10% Fetal bovine serum (Gibco). 2 mM L-glutamine, 50 μg/mL Hygromycin B (Invitrogen) and 5 μg/mL Blasticidine HCl (Invitrogen). Before electrophysiological patch clamp experiments, the cell culture medium was replaced with medium containing 1 μg/mL Doxycycline for at least 16 hours to induce the expression of TRPV1.
as §1, §2

[1] = Pharmacokinetic test in rat; format: in vivo; settings: PO 10 mg/kg
Description: A certain amount of sample was weighed and dissolved in deionized water to prepare 1 mg/mL of solution. Male SD rats were used as test animals. The dose of single intravenous (IV) injection was 2 mg/kg, and the dose of oral (PO) administration was 10 mg/kg. Each group had three rats. The rats in oral group were fasted for 10-14 hours before administration, and were fed 4 hours after administration. Blood collection time points of animals were before administration, and 5 min, 15 min, 30 min, 1 h, 2 h, 4 h, 6 h, 8 h, and 24 h after administration for intravenous administration; before administration, and 15 min, 30 min, 1 h, 2 h, 4 h, 6 h, 8 h and 24 h after administration for oral administration. About 0.25 mL of blood was collected via the jugular vein from each animal, and heparin sodium was used for anticoagulation. After collecting the blood samples, the blood samples were placed on ice and centrifuged to separate the plasma (centrifugation conditions: 8000 rpm, 6 min, 4° C.). The collected plasma was stored at −80° C. before analysis. 50 μL of plasma sample was taken into 1.5 mL centrifuge tube, 250 μL of internal standard solution was added, and the same volume of methanol rather than internal standard solution was added in the blank group. […]

T1 sequence (Q9HBA0 whole entry, species assumed): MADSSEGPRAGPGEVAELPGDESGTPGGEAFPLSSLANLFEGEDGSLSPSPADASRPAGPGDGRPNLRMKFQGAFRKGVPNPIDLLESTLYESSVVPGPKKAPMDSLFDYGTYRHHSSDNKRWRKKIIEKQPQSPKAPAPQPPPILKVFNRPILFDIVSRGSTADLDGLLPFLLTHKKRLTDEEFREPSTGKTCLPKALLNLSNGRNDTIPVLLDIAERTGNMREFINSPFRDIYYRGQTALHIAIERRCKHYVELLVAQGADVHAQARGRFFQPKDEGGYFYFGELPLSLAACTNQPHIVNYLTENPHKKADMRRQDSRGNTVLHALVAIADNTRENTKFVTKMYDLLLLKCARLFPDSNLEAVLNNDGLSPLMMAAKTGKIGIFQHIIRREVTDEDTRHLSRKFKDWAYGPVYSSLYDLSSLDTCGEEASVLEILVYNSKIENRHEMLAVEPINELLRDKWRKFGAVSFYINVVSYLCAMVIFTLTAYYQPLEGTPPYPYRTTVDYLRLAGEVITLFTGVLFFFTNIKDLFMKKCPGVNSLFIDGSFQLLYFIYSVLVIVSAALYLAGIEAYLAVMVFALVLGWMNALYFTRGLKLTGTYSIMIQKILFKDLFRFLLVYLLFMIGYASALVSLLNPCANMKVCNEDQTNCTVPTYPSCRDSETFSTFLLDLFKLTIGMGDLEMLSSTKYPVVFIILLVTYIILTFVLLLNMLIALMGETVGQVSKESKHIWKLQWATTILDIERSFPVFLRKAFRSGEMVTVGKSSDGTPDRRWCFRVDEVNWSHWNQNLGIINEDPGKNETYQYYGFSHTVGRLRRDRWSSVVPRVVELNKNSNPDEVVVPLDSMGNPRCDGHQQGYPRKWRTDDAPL

| SMILES | inhibition at 10 µM (TRPV4) [%] | inhibition at 10 µM (TRPV1) [%] | Tmax [1] [min] |
| --- | --- | --- | --- |
| CNCC[C@H](Oc1cccc2ccoc12)c1cccs1 [IC-1, (S)-3-(Benzofuran-7-yloxy)-N-methyl-3-(thiophen-2-yl)propan-1-amine] | 4.68 | 22.5 | – |
| CNCC[C@H](Oc1cccc2ccccc12)c1cccs1 [Duloxetine (S configuration), Duloxetine, reference compound] | – | – | 50 |
